≈ marks a conversion by molar mass, not a printed value. Where “and” joins values, the source holds several entries; their conditions need not be identical. Identical values can stand only once.
What was measured:
Assay type in all cases: functional
Streptococcus pneumoniae [1] = assay: Antimicrobial activity against Streptococcus pneumoniae harboring erm(B) gene by broth microdilution method
Streptococcus pneumoniae [2] = assay: Antimicrobial activity against Streptococcus pneumoniae 02J1175
Enterococcus faecalis [3] = assay: Antimicrobial activity against vancomycin-resistant Enterococcus faecalis 03B1069
Enterococcus faecium [4] = assay: Antimicrobial activity against Enterococcus faecium A5960
Staphylococcus aureus [5] = assay: Antimicrobial activity against Staphylococcus aureus A8831 harboring U2500A mutation in 23S rRNA
Enterococcus faecium [6] = assay: Antimicrobial activity against Enterococcus faecium A5959
Staphylococcus aureus [7] = assay: Antimicrobial activity against Staphylococcus aureus pLXM1 harboring cfr gene
Enterococcus faecium [8] = assay: Antimicrobial activity against Enterococcus faecium A9650
Enterococcus faecalis [9] = assay: Antimicrobial activity against Enterococcus faecalis A5962
Staphylococcus aureus [10] = assay: Antimicrobial activity against Staphylococcus aureus A8833 harboring U2500A mutation in 23S rRNA
Enterococcus faecalis [11] = assay: Antimicrobial activity against Enterococcus faecalis ATCC 29212-P5 harboring G2576U mutation in 23S rRNA
Enterococcus faecium [12] = assay: Antimicrobial activity against Enterococcus faecium A6348 harboring G2576U mutation in 23S rRNA
Enterococcus faecalis [13] = assay: Antimicrobial activity against Enterococcus faecalis A7789
Haemophilus influenzae [14] = assay: Antimicrobial activity against Haemophilus influenzae A1950
Staphylococcus aureus [15] = assay: Antimicrobial activity against Staphylococcus aureus A7820
Staphylococcus aureus [16] = assay: Antimicrobial activity against Staphylococcus aureus A8761
Staphylococcus aureus [17] = assay: Antimicrobial activity against methicillin-resistant Staphylococcus aureus BK 11118
Staphylococcus capitis = assay: Antimicrobial activity against Staphylococcus capitis A8935
Enterococcus faecalis [18] = assay: Antimicrobial activity against Enterococcus faecalis A6350
Staphylococcus aureus [19] = assay: Antimicrobial activity against Staphylococcus aureus ATCC 29213
Streptococcus pneumoniae [20] = assay: Antimicrobial activity against Streptococcus pneumoniae PU1071099 harboring 65WR66 deletion in ribosomal protein L4 by broth microdilution method
Streptococcus pneumoniae [21] = assay: Antimicrobial activity against Streptococcus pneumoniae 02J1258
Enterococcus faecium [22] = assay: Antimicrobial activity against Enterococcus faecium A9621 by broth microdilution method
Staphylococcus aureus [23] = assay: Antimicrobial activity against Staphylococcus aureus A8727
Staphylococcus aureus [24] = assay: Antimicrobial activity against Staphylococcus aureus A7817
Enterococcus faecium [25] = assay: Antimicrobial activity against Enterococcus faecium A6349
Staphylococcus aureus [26] = assay: Antimicrobial activity against Staphylococcus aureus A7819 harboring G2576U mutation in 23S rRNA
Enterococcus faecium [27] = assay: Antimicrobial activity against Enterococcus faecium A8767
Enterococcus faecalis [28] = assay: Antimicrobial activity against Enterococcus faecalis ATCC 29212
[29] = tested on: Staphylococcus epidermidis; assay: Antimicrobial activity against Staphylococcus epidermidis A8934
Enterococcus faecalis [30] = assay: Antimicrobial activity against Enterococcus faecalis A6343
Staphylococcus aureus [31] = assay: Antimicrobial activity against methicillin resistant Staphylococcus aureus 67-0
Enterococcus faecium [32] = assay: Antimicrobial activity against Enterococcus faecium A6345
Enterococcus faecium [33] = assay: Antimicrobial activity against Enterococcus faecium A8130
Staphylococcus aureus [34] = assay: Antimicrobial activity against methicillin-resistant Staphylococcus aureus BK 11512
Enterococcus faecium [35] = assay: Antimicrobial activity against Enterococcus faecium A8948
Staphylococcus aureus [36] = assay: Antimicrobial activity against Staphylococcus aureus pL150
Streptococcus pyogenes = assay: Antimicrobial activity against Streptococcus pyogenes
Haemophilus influenzae [37] = assay: Antimicrobial activity against Haemophilus influenzae 54A1100
Staphylococcus hominis = assay: Antimicrobial activity against Staphylococcus hominis A7828
Enterococcus faecalis [38] = assay: Antimicrobial activity against vancomycin-resistant Enterococcus faecalis nosocomial isolate
Enterococcus faecium [39] = assay: Antimicrobial activity against vancomycin-resistant Enterococcus faecium nosocomial isolate
Enterococcus faecium [40] = assay: Antimicrobial activity against vancomycin-susceptible Enterococcus faecium nosocomial isolate by broth microdilution method
Staphylococcus aureus [41] = assay: Antimicrobial activity against methicillin-susceptible Staphylococcus aureus nosocomial isolate
[42] = Streptococcus pneumoniae, read-out: MIC

CCC[C@@H]1C[C@@H](C(=O)N[C@@H]([C@H]2O[C@H](SC)[C@H](O)[C@@H](O)[C@H]2O)[C@H](C)Cl)N(C)C1 [CLINDAMYCIN]
MIC (Streptococcus pneumoniae [1]): >128 µg/mL | MIC (Streptococcus pneumoniae [1]; [42]): > 64 µg/mL

CC[C@H]1OC(=O)[C@H](C)[C@@H](O[C@H]2C[C@@](C)(OC)[C@@H](O)[C@H](C)O2)[C@H](C)[C@@H](O[C@@H]2O[C@H](C)C[C@H](N(C)C)[C@H]2O)[C@](C)(O)C[C@@H](C)CN(C)[C@H](C)[C@@H](O)[C@]1(C)O [AZITHROMYCIN]
MIC (Streptococcus pneumoniae [2]): 32 µg/mL (≈ 42.7 µM) | MIC (Enterococcus faecalis [3]): > 128 µg/mL | MIC (Enterococcus faecium [4]): > 128 µg/mL | MIC (Staphylococcus aureus [5]): > 128 µg/mL | MIC (Enterococcus faecium [6]): 8 µg/mL (≈ 10.7 µM) | MIC (Staphylococcus aureus [7]): 0.5 µg/mL (≈ 0.668 µM) | MIC (Enterococcus faecium [8]): > 128 µg/mL | MIC (Enterococcus faecalis [9]): > 128 µg/mL | MIC (Staphylococcus aureus [10]): > 128 µg/mL | MIC (Enterococcus faecalis [11]): 8 µg/mL (≈ 10.7 µM) | MIC (Enterococcus faecium [12]): > 128 µg/mL | MIC (Enterococcus faecalis [13]): > 128 µg/mL | MIC (Haemophilus influenzae [14]): 4 µg/mL (≈ 5.34 µM) | MIC (Staphylococcus aureus [15]): > 128 µg/mL | MIC (Staphylococcus aureus [16]): > 128 µg/mL | MIC (Staphylococcus aureus [17]): > 128 µg/mL | MIC (Staphylococcus capitis): 64 µg/mL (≈ 85.4 µM) | MIC (Enterococcus faecalis [18]): 4 µg/mL (≈ 5.34 µM) | MIC (Staphylococcus aureus [19]): 1 µg/mL (≈ 1.34 µM) | MIC (Streptococcus pneumoniae [20]): 4 µg/mL (≈ 5.34 µM) | MIC (Streptococcus pneumoniae [21]): > 128 µg/mL | MIC (Enterococcus faecium [22]): 16 µg/mL (≈ 21.4 µM) | MIC (Streptococcus pneumoniae [1]; [42]): > 128 µg/mL | MIC (Staphylococcus aureus [23]): 16 µg/mL (≈ 21.4 µM) | MIC (Staphylococcus aureus [24]): 1 µg/mL (≈ 1.34 µM) | MIC (Enterococcus faecium [25]): > 128 µg/mL | MIC (Staphylococcus aureus [26]): 2 µg/mL (≈ 2.67 µM) | MIC (Enterococcus faecium [27]): > 128 µg/mL | MIC (Enterococcus faecalis [28]): 8 µg/mL (≈ 10.7 µM) | MIC [29]: > 128 µg/mL | MIC (Enterococcus faecalis [30]): > 128 µg/mL | MIC (Staphylococcus aureus [31]): > 128 µg/mL | MIC (Enterococcus faecium [32]): 2 µg/mL (≈ 2.67 µM) | MIC (Enterococcus faecium [33]): 4 µg/mL (≈ 5.34 µM) | MIC (Staphylococcus aureus [34]): > 128 µg/mL | MIC (Enterococcus faecium [35]): > 128 µg/mL | MIC (Staphylococcus aureus [36]): 0.25 µg/mL (≈ 0.334 µM) | MIC (Streptococcus pyogenes): 0.03 µg/mL and 0.06 µg/mL | MIC (Haemophilus influenzae [37]): 1 µg/mL (≈ 1.34 µM) | MIC (Staphylococcus hominis): > 128 µg/mL

GENTAMICIN
MIC (Enterococcus faecalis [38]): > 128 µg/mL | MIC (Enterococcus faecium [39]): > 128 µg/mL | MIC (Enterococcus faecium [40]): > 128 µg/mL

CC[C@H]1OC(=O)[C@H](C)C(=O)[C@H](C)[C@@H](O[C@@H]2O[C@H](C)C[C@H](N(C)C)[C@H]2O)[C@](C)(OC)C[C@@H](C)C(=O)[C@H](C)[C@H]2N(CCCCn3cnc(-c4cccnc4)c3)C(=O)O[C@]12C [TELITHROMYCIN]
MIC (Staphylococcus aureus [41]): >=0.06 ug ml-1 and 0.125 ug ml-1

— ChEMBL document CHEMBL1255340, “In vitro activities of the Rx-01 oxazolidinones against hospital and community pathogens” (2008)
